Data reported in ChEMBL document CHEMBL5212743, “Selectivity Literature for EUbOPEN Chemogenomics Library wave 3” (2023).
Values belong to the molecule of their own block, whether it stands above or below them.

Experiments:
[1] = molecular target: Calcium/calmodulin-dependent protein kinase type IV (Homo sapiens) (UniProt Q16566); assay: Selectivity interaction (Kinase panel) EUB0000209b CAMK4; conditions: at 10 µM
[2] = molecular target: Protein arginine N-methyltransferase 3 (Homo sapiens, UniProt O60678); assay: Selectivity interaction (HMT panel) EUB0000209b PRMT3; conditions: at 1 µM
Protein arginine N-methyltransferase 3, sequence (O60678 2-531 limits assumed): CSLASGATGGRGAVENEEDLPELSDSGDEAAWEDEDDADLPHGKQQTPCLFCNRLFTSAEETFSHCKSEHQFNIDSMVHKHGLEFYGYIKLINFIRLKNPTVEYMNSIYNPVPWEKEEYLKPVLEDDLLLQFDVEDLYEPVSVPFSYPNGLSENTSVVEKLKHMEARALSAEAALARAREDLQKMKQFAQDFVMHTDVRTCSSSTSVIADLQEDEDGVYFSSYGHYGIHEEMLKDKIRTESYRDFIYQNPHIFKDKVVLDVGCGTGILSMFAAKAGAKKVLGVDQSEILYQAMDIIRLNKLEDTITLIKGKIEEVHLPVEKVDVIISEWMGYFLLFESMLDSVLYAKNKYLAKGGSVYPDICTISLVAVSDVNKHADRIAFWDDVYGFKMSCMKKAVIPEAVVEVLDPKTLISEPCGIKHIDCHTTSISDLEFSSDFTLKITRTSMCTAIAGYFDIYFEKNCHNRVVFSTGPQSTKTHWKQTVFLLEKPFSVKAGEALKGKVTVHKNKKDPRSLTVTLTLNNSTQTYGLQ

[3] = molecular target: Protein-tyrosine kinase 6 (Homo sapiens) (UniProt Q13882); conditions: at 1 µM
Protein-tyrosine kinase 6 (Homo sapiens), sequence (Q13882 whole entry, looked up): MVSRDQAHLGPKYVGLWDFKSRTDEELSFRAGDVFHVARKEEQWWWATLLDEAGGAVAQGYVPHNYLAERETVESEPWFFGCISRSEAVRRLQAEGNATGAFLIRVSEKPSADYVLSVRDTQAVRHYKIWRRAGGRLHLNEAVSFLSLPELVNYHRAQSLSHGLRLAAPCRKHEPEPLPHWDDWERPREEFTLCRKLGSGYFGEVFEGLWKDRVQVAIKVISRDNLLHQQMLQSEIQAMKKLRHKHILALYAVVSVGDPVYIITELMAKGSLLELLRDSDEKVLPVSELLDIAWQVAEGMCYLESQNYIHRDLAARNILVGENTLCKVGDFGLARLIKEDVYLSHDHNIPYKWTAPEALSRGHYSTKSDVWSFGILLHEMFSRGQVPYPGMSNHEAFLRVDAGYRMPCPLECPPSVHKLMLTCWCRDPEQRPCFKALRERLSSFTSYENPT

[4] = molecular target: Mitogen-activated protein kinase kinase kinase 20 (Homo sapiens) (UniProt Q9NYL2); assay: Selectivity interaction (KinomeScan (DiscoverX)) EUB0000132b MAP3K20; conditions: at 1 µM
Mitogen-activated protein kinase kinase kinase 20 (Homo sapiens), sequence (Q9NYL2 2-800 limits assumed): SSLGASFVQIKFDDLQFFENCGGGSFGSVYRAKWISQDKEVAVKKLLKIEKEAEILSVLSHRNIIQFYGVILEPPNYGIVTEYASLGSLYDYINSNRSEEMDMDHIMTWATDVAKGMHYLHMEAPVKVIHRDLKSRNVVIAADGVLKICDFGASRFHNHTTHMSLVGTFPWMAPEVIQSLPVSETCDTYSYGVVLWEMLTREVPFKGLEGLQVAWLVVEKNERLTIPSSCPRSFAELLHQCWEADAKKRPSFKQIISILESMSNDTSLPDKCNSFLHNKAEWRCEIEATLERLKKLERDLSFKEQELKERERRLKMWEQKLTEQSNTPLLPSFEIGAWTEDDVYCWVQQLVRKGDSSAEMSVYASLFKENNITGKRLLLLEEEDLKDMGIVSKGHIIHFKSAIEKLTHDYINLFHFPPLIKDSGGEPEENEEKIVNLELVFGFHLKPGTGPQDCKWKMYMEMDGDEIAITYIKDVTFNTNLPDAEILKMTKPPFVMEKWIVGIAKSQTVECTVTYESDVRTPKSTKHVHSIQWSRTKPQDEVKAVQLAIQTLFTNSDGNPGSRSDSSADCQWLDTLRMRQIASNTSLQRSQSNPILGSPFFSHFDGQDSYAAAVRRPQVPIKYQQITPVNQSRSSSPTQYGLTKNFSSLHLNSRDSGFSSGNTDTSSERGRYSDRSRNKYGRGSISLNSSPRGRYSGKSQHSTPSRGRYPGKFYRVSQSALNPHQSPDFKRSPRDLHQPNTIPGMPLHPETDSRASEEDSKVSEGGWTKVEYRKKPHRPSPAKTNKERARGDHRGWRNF

[5] = tested on: Mast/stem cell growth factor receptor Kit (Homo sapiens), P10721 [V559D]; assay: (§1) Selectivity interaction (KinomeScan (DiscoverX)) EUB0000132b KIT; conditions: at 1 µM
Mast/stem cell growth factor receptor Kit (Homo sapiens), P10721 [V559D], sequence (P10721 whole entry V559D): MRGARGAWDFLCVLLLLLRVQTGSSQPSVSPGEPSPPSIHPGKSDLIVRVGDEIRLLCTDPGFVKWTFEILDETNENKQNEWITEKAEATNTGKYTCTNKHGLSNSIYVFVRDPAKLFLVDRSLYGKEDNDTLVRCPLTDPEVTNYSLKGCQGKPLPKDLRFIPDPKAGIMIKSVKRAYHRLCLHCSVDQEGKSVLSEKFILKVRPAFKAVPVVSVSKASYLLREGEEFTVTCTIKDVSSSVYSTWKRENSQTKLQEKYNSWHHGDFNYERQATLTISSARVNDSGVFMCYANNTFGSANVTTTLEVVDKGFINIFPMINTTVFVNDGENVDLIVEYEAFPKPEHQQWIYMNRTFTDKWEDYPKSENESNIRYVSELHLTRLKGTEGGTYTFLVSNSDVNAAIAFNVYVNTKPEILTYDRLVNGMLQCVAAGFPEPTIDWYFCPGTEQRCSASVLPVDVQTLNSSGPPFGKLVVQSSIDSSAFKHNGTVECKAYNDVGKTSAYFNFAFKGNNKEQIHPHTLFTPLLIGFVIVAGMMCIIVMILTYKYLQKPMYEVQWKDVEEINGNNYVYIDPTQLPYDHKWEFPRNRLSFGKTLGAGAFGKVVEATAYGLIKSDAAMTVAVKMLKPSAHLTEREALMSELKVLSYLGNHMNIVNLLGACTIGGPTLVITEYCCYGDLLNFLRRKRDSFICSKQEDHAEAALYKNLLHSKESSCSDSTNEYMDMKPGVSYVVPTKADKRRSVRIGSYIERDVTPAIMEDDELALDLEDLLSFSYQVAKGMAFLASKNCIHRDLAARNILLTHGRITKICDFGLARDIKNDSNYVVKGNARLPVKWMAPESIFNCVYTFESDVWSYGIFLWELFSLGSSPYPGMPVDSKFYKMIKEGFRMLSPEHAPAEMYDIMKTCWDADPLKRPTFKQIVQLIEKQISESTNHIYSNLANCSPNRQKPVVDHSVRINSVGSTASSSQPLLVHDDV

[6] = molecular target: Mast/stem cell growth factor receptor Kit (Homo sapiens, UniProt P10721); assay: as §1; conditions: at 1 µM
Mast/stem cell growth factor receptor Kit, sequence (P10721 whole entry): as the sequence (P10721 whole entry V559D) above, with D559V counted along it

[7] = molecular target: Ribosomal protein S6 kinase alpha-6 (Homo sapiens) (UniProt Q9UK32); assay: Selectivity interaction (KinomeScan (DiscoverX)) EUB0000132b RPS6KA6; conditions: at 1 µM
Ribosomal protein S6 kinase alpha-6 (Homo sapiens), sequence (Q9UK32 whole entry, the tested form may be a part): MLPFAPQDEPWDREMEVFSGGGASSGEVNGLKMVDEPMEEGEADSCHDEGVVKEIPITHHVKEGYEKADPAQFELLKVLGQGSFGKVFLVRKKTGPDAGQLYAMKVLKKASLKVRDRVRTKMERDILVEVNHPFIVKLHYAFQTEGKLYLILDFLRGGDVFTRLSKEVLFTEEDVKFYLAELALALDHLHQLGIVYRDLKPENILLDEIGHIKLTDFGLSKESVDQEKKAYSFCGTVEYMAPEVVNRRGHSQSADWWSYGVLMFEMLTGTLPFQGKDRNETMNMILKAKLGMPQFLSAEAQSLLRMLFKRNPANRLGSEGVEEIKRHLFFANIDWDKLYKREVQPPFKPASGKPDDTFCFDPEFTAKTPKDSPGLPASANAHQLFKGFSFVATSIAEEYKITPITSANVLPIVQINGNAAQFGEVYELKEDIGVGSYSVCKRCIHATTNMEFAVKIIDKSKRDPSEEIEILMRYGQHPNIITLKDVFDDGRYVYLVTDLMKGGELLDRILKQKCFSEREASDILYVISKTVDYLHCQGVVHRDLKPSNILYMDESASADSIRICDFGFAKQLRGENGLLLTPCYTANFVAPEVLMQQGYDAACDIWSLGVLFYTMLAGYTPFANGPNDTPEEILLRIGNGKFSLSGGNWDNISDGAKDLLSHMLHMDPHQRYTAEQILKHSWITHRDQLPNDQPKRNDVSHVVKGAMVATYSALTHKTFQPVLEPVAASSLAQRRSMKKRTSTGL

[8] = molecular target: Discoidin domain-containing receptor 2 (Homo sapiens) (UniProt Q16832); assay: Selectivity interaction (KinomeScan (DiscoverX)) EUB0000132b DDR2; conditions: at 1 µM
Discoidin domain-containing receptor 2 (Homo sapiens), sequence (Q16832 whole entry, the tested form may be a part): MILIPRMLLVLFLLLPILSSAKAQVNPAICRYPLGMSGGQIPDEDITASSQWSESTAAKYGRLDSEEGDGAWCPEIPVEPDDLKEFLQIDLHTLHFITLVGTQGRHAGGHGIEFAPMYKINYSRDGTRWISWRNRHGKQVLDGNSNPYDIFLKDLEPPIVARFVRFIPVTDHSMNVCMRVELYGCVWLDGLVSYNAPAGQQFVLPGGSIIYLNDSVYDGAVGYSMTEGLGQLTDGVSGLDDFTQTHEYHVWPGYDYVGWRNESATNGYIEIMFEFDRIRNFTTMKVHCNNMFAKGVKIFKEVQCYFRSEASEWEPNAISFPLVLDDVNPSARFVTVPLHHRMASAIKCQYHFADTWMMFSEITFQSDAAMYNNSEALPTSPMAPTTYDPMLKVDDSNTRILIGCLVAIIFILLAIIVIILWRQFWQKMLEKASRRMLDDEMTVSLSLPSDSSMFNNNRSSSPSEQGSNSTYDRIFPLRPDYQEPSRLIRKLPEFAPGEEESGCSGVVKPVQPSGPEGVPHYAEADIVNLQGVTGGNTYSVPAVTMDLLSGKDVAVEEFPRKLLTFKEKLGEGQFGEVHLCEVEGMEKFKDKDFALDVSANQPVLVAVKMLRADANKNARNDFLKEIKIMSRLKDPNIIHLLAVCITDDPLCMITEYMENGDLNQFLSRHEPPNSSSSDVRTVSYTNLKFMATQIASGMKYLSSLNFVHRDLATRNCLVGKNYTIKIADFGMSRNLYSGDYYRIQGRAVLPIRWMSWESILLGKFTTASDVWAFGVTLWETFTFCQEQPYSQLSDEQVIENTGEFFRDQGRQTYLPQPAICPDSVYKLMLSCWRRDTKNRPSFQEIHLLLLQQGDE

[9] = molecular target: Epithelial discoidin domain-containing receptor 1 (Homo sapiens, UniProt Q08345); conditions: at 1 µM
[10] = molecular target: Myosin light chain kinase family member 4 (Homo sapiens) (UniProt Q86YV6); assay: Selectivity interaction (KinomeScan (DiscoverX)) EUB0000132b MYLK4; conditions: at 1 µM
[11] = molecular target: T1, Phosphatidylinositol 4,5-bisphosphate 3-kinase catalytic subunit delta isoform (Homo sapiens) (UniProt O00329); conditions: at 1 µM
T1 sequence (whole entry): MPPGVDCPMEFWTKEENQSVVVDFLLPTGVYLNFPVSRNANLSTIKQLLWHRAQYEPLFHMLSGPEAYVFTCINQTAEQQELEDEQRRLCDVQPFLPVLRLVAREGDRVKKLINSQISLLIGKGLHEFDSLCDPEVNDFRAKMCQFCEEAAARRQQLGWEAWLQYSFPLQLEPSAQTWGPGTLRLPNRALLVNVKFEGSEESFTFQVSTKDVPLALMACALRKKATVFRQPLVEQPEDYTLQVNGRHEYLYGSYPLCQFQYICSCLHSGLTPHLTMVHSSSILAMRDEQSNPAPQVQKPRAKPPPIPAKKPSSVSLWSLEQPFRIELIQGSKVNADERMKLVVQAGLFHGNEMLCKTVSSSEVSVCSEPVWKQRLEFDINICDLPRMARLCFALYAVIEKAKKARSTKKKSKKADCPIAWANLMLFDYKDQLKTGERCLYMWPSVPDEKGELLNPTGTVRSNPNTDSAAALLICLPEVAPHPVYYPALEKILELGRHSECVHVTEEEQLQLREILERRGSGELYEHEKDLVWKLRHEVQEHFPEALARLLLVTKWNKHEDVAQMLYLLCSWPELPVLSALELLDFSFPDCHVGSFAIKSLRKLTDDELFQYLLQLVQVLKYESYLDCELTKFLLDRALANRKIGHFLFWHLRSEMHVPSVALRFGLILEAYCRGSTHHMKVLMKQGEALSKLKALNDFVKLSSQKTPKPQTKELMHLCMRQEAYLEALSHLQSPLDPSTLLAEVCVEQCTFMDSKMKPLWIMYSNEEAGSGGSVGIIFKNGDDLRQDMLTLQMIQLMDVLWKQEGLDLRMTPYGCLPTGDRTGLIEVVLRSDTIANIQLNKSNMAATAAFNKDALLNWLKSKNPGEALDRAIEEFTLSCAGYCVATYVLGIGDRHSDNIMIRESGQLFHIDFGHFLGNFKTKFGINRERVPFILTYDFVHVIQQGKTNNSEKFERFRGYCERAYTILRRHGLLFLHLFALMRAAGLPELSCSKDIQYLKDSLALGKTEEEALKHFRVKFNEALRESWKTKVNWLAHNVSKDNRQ

[12] = molecular target: Phosphatidylinositol 4,5-bisphosphate 3-kinase catalytic subunit alpha isoform (Homo sapiens, UniProt P42336); conditions: at 1 µM

Calcium/calmodulin-dependent protein kinase type IV (Homo sapiens), sequence (Q16566 whole entry): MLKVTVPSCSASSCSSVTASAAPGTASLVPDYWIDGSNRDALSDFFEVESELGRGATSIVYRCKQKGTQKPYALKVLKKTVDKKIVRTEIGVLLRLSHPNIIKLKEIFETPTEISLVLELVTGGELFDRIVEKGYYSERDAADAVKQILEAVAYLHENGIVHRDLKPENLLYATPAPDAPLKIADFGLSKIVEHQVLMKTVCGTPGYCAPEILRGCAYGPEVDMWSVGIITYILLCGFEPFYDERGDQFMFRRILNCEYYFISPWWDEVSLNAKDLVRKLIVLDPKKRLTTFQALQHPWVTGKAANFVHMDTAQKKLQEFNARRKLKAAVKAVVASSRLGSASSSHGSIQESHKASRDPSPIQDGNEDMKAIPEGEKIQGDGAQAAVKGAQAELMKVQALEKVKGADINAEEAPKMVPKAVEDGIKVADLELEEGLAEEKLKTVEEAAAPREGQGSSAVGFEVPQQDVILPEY

% of inhibition [1]: 20%
% activity remaining [2]: > 70%
SMILES: CCCc1cc(C)[nH]c(=O)c1CNC(=O)c1cc(-c2ccc(N3CCN(C(C)C)CC3)nc2)cc2c1cnn2C(C)C

% of inhibition [3]: 99%
SMILES: C=CC(=O)N1CCC([C@@H]2CCNc3c(C(N)=O)c(-c4ccc(Oc5ccccc5)cc4)nn32)CC1

% of control [4]: 8.8%
% of control [5]: 3%
% of control [6]: 7.7%
% of control [7]: 29%
% of control [8]: 31%
% of control [9]: 3%
% of control [10]: 31%
SMILES: Nc1c(C(=O)NCc2ccc(C(=O)NCCCC3CCCCC3)cc2)cnn1-c1ccccc1

% of control [11]: 97.9%
% of control [12]: 98.6%
SMILES: Cc1nc(-c2cn3c(n2)-c2ccc(-c4cnn(C(C)(C)C(N)=O)c4)cc2OCC3)n(C(C)C)n1
